The record followed here is US7129250B2, “Neuroprotective and anti-proliferative compounds” (Aegera Therapeutics Inc., priority 2000, dated 2006).

Series [1] deals with CGNs. As to the kind of experiment: Cisplatin Killing of CGNs. Format: cell-based, CD1 mice. The following applies: Mus musculus; assayed 48 hours after final drug treatment. The method, then:
Cisplatin has been used extensively in the treatment of various cancers. One dosblimiting side effect of this chemotherapeutic agent is related to hearing loss as a result of its toxicity to auditory neurons and loss of feeling in the extremities. Cisplatin induces apoptosis to both cultured CGN and cortical neurons.
CGNs were harvested from day 8/9 post-natal CD1 mice, plated on Poly-D-Lycine coated plates and incubated for 6 days at 37° C. under 5% CO2. The cells were treated with media containing drug and cisplatin […].

The test system of another series is SCG neurons. As to the kind of experiment: NGF Withdrawal Killing of SCG Neurons. The following applies: Rattus norvegicus, Neuron, assayed 48 hours after drug. Format: cell-based, Sprague-Dawley rats. From the text:
Cultured Superiour Cervical Ganglion (SCG) neurons of the PNS which have been sustained in media containing Neuron Growth Factor (NGF) undergo apoptotic cell death upon removal of the NGF from the cellular medium. Loss of neuronal trofin support has been implicated in various neurodegenerative disease states in the PNS, such as diabetic neuropathy and neuropahies related to chemotherapeutic and anti-HIV drug treatment.
SCG neurons were harvested from day 1 post natal Sprague-Dawley rats, plated on collagen coated plates and incubated for 5 days in the presence of 50 ng/mL NGF at 37° C. under 5% CO2. The cells were washed with NGF free media, 4 times at 1 hour intervals, at which time drug was added.

The test system of a further series is SHSY-5Y cells. Briefly: Etoposide Killing of SHSY-5Y. Format: cell-based. Conditions: etoposide 32 uM. The method, then: SHSY-5Y cells were grown in growth media. Cells are placed at 50,000 cells per 96 well. Four days latter the cells were treated with drug for 48 hours prior to etoposide (32 uM) treatment. On day 6 media was changed to that containing etoposide and drug for 4 hours, at which point the media was changed to media containing drug only. Cells are allowed to survive overnight and then assessed for viability with metabolic activity measured (WST-1-Beohringer Mannheime), as shown in TABLE 13.

The test system of series [2] is CGNs. As to the kind of experiment: β-Amyloid Aggregation Assay in CGNs. Format: cell-based. The following applies: Mus musculus, 120 h; Aβ 25 μM; assayed 5 days after Aβ addition. From the text: Various mechanisms have been put forward in order to account for the neurotoxicity related to extracellular Aβ fibril formation. […] Regardless of the mode of action, extracellular Aβ fibril formation acts as an effective apoptotic trigger for neuronal cells and serves as an in vitro model for various neurodegenerative diseases characterized by extracellular protein fibril formation, typified by diseases such as AD and PD.
CGNs were harvested from day 8/9 post-natal CD1 mice, plated on Poly-D-Lycine coated plates and incubated for 6 days at 37° C. under 5% CO2. Pretreated cells were treated with drug 24 hours prior to A-β (25 μM) and drug addition.

Series [3] relates to CGNs. As to the kind of experiment: High/Low Potassium (HK/LK) assay in CGNs. The class given is cell-based. The method, then: Cultured CGNs which are maintained in a medium containing 26 mM potassium (high K^+ or HK) undergo cell death when the medium is changed to one containing 5 mM potassium (low K^+ or LK). HK maintains the cells in a highly polarized state, duplicating that of fully innervated neurons. The switch to LK (5 mM is more representative of physiological conditions) results in depolarization of the cells, mimicking the loss of neuronal conductivity. […] As these killer genes are turned on by various types of neuronal insult as observed in AD, PD, and stroke, HK/LK is a general in vitro model for neuronal degradation, blanketing a wide range of neurodegenerative diseases. Compounds that protect against HK/LK in CGNs would therefore be efficacious in treatment and/or prevention of various neurodegenerative disease states.
CGNs were harvested from day 8/9 post-natal CD1 mice, plated on Poly-D-Lycine coated plates and incubated for 6 days at 37° C., with […] potassium, under 5% CO2. Pretreated cells were treated with drug 24 hours prior to changing the media to one containing […] potassium and drug. Cells were assayed 16 hours after the final media change using cell TITER96 (Promega).

Another series has as its system HIAP1 mRNA in LAN5 cells. Briefly: LAN5 HAIP1 Down Regulators (RNA levels). Format: cell-based. The following applies: HIAP1 RNA level vs control = 1.0; 24 hours drug. As to the method: LAN5 cells were grown in growth media. Cells were plated at cells 50,000 per well in 96 cells per 96 wells. Five days latter drug was added and the cells were liced 24 hours latter using RLT buffer.

Series [4] relates to DU145 prostate cancer cells. Briefly: Anticancer Effectiveness on Prostate Tumor Cells (Alamar Blue). Conditions: for % Survival: 7 days. Format: cell-based, Human. As to the method: Prostate cancer is often resistant to traditional chemotherapies. DU145 is representative prostated cancer cell line. DU145cells were cultured in the presence of various concentrations of compound 136.
Human prostate DUI45 cells were cultured in 96 well dishes. Cells were treated with various concentrations of test compounds for 7 days. Media was then removed and replaced with fresh media containing Alamar Blue. The cells were incubated for a further 4 hours and Alamar blue and conversion was assessed by fluorescence. Compound effectiveness was determined by assessing the reduction in Alamar blue bioconversion following 7 day treatment.

Series [5] relates to CGNs. Briefly: Ceramide Killing of CGNs. The class given is cell-based, CD1 mice. The following applies: ceramide 100 uM; 300 nM, (250 nM in source). From the text: Ceramide is a native […] found in most mammalian and human cells. The upregulation of endogenous ceramide has been linked to caspase 1 (ICE) induced apoptosis (Suzuki, A. et al. Exp. Cel. Res., 1997, 233, 41). In a similar fashion, the addition of ceramide to cultured CGNs results in caspase induced apoptosis, and is therefore considered an effective in vitro model for the various neurodegenerative diseases described above, which are characterized by caspase induced apoptosis, as observed in stroke models. Addition of selected compounds of the formula I through III, 24 hours prior to the addition of ceramide, to cultured CGNs provided protection against apoptosis, with 10 to 20% of the cells being saved at 1–10 μM drug concentrations (see Example 114).
CGNs were harvested from day 8/9 post-natal CD1 mice, plated on Poly-D-Lycine coated plates and incubated for 6 days at 37° C. under 5% CO2. Cells were pretreated with drug 24 hours prior to ceramide (100 uM) and drug addition.

For series [6], the system named is CGNs. As to the kind of experiment: Glutamate Killing of CGNs. The class given is cell-based, CD1 mice. Conditions: glutamate 100 uM; 300 nM, (250 nM in source). An excerpt: Glutaminergic neurons secrete the neurotransmitter glutamate as a part of normal cell signaling processes. Intracellular glutamate levels are regulated by glial cell uptake and conversion to glutamine. Under conditions of oxidative stress, as observed in various neurodegenerative diseases such as stroke, ALS, PD, and HD, glutaminergic neurons release massive amounts of glutamate into the […] fluid, overwhelming the surrounding cells. Stimulation of both NMDA and non NMDA-type glutamate excitory receptors leads to sustained depolarization of postsynaptic dendrosomal membranes, increased membrane permeability, and impaired ion homeostasis, all leading to either apoptotic or necrotic cell death.
CGNs were harvested from day 8/9 post-natal CD1 mice, plated on Poly-D-Lycine coated plates and incubated for 6 days at 37° C. under 5% CO2. Cells were pretreated with drug 24 hours prior to glutamate (100 uM) and drug addition.

What is called IC50 is the concentration needed to halve the response being measured. As usually defined, the melting point is the temperature, or range, at which the solid turns liquid. The compound `O=C1NC(=O)C(n2ccc3ccccc32)=C1c1c[nH]c2ccccc12` [Compound 1, 3-(indol-1-yl)-4-(1H-indol-3-yl)-1H-pyrrole-2,5-dione] registered a melting point of 212 to 213 °C. The IC50 in the series on CGNs [1] came out at 10 µM. Moreover, in the series on SCG neurons, the IC50 was found to be 20 µM. Further, in the series with SHSY-5Y cells (drug 1 μM), the “% SHSY-5Y cell survival” value turned out to be 0%. Besides, the “% SHSY-5Y cell survival” value with SHSY-5Y cells (drug 10 μM) was determined as 12.5%.
For the compound `COc1ccc2[nH]cc(C3=C(n4ccc5ccccc54)C(=O)NC3=O)c2c1` [Compound 2, 3-(5-Methoxyindol-3-yl)-4-(indol-1-yl)-1H-pyrrole-2,5-dione], the IC50 with CGNs [2] and with CGNs [1] was 10 µM throughout.
The compound `O=C1NC(=O)C(n2ccc3ccccc32)=C1c1c[nH]c2ccc(OCc3ccccc3)cc12` [Compound 5, 3-(5-Benzyloxy-1H-indol-3-yl)-4-(indol-1-yl)-pyrrole-2,5-dione] had a melting point of 217 to 220 °C. In the series with CGNs [1], this compound had an IC50 of 10 µM.
Consider `O=C1NC(=O)C(n2ccc3cc(OCc4ccccc4)ccc32)=C1c1c[nH]c2ccccc12` [Compound 12, 3-(5-benzyloxyindol-1-yl)-4-(1H-indol-3-yl)-1H-pyrrole-2,5-dione], for which the melting point was 114 to 116 °C.
Still for that read-out and setting: with `O=C1NC(=O)C(n2ccc3ccccc32)=C1c1c[nH]c2ccc(C#Cc3ccccc3)cc12` [Compound 15, 3-(Indol-1-yl)-4-(5-(β-phenylethynyl)-indol-3-yl)-pyrrole-2,5dione] the figure was 141 to 144 °C.
Consider `COc1ccc2[nH]c3c(c4c(n5c6ccccc6cc35)C(=O)NC4=O)c2c1` [Compound 47], for which the “inhibition of HK/LK cell death / protection of CGN neurons” value with CGNs [3] (10 μM drug) is “(100% inhibition at 10 (μM)”. The IC50 in the series on CGNs [3] (Mus musculus, HK/LK switch, drug 24 h pre-treatment, assayed 16 h after media change, concentration at which cell death was inhibited by 50%) is 3 µM; with CGNs [1] it was 10 µM; in the series on SCG neurons, 10 µM.
For the compound `CC(=O)n1cc(C2=CC(=O)NC2=O)c2cc(Br)ccc21` [Compound 57, 3-(N-acetyl-5-bromoindol-3-yl)-1H-pyrrole-2,5-dione], the melting point lay in the range of 271 to 272.9 °C. The “Fold Induction” value in the series on HIAP1 mRNA in LAN5 cells stood at 0.45.
The like results for `CN(C)C(=O)n1cc(C2=CC(=O)NC2=O)c2cc(Br)ccc21` [Compound 58, 3-(N-(N,N-dimethylcarbamoyl)-5-bromoindol-3-yl)-1H-pyrrole-2,5-dione] were, in that order, 287 to 288 °C and 0.55.
`COc1ccc(C(=O)n2cc(C3=CC(=O)NC3=O)c3cc(OCc4ccccc4)ccc32)c(OC)c1` [Compound 67, 3-(N-(2,4-dimethoxybenzoyl)-5-benzyloxyindol-3-yl)-1H-pyrrole-2,5-dione] had an IC50 with SCG neurons of 10 µM.
Take `Cc1ccc(S(=O)(=O)n2cc(C3=CC(=O)NC3=O)c3cc(OCc4ccccc4)ccc32)cc1` [Compound 70, 3-(N-tosyl-5-benzyloxyindol-3-yl)-1H-pyrrole-2,5-dione]: the “% SHSY-5Y cell survival” value in the series with SHSY-5Y cells (drug 10 μM) stood at 7.6%. Further, in the series with HIAP1 mRNA in LAN5 cells, the “Fold Induction” value came to 0.21.
`O=C1C=C(c2cn(Cc3ccccc3)c3ccc(OCc4ccccc4)cc23)C(=O)N1` [Compound 73, 3-(N-benzyl-5-benzyloxyindol-3-yl)-1H-pyrrole-2,5-dione]: the “% SHSY-5Y cell survival” value in the series with SHSY-5Y cells (drug 10 μM) is on record as “toxic”.
Compound `Cc1ccc(S(=O)(=O)n2cc(C3=CC(=O)NC3=O)c3cc(O)ccc32)cc1` [Compound 91, 3-(N-tosyl-5-hydroxyindol-3-yl)-1H-pyrrole-2,5-dione] showed an IC50 with SCG neurons of 20 µM.
On to `O=C1C=C(c2cn(S(=O)(=O)c3cccs3)c3ccccc23)C(=O)N1` [Compound 97, 3-(N-(2-thiophenesulfonyl)indol-3-yl)-1H-pyrrole-2,5-dione], for which the IC50 in the series with SCG neurons was 10 µM.
For the compound `O=C1C=C(c2c[nH]c3ccc(Cl)cc23)C(=O)N1` [Compound 99, 3-(1H-5-chloroindol-3-yl)-1H-pyrrole-2,5-dione], the “% SHSY-5Y cell survival” value in the series with SHSY-5Y cells (drug 10 μM) was found to be 4.7%.
As for `COC(=O)C(C)(C)Cc1c(C2=CC(=O)NC2=O)c2cc(OCc3ccc4ccccc4n3)ccc2n1Cc1ccc(Cl)cc1` [Compound 109], in the series on SCG neurons, it took 10 µM to reach half-maximal inhibition (IC50).
For the compound `O=C1NC(=O)C(n2ccc3ccccc32)=C1c1cn(CCCO)c2ccccc12` [Compound 121], the “% SHSY-5Y cell survival” value with SHSY-5Y cells (drug 1 μM) came out at 5.5%.
For `CN(C)CCCn1cc(C2=C(n3ccc4ccccc43)C(=O)NC2=O)c2cc(OCc3ccccc3)ccc21` [Compound 136], in series [4] (10 μM, after 7 days), the cells killed was found to be 100%. Besides, the “% Survival” value in series [4] (0.312 um) is given as 102.71%; in [4] (0.625 um), 97.00%; in series [4] (1.25 um) it was 99.61%; in [4] (2.5 um), 81.81%; in series [4] (5 um) it was 66.75%; in series [4] (10 um), −1.64%. Besides, the “% Survival” value in series [4] (20 um) is given as −1.00%; in series [4] (40 um), 1.17%.
With `COC(=O)[C@@]1(O)C[C@H]2O[C@]1(C)n1c3ccccc3c3c4c(c5c6ccccc6n2c5c31)C(=O)NC4` [Compound K252a, K252a, reference compound], the toxicity entry in the series on CGNs [3] (higher doses) was “toxic at higher doses”. Also, the entries for the “% CGN Survival” value with CGNs [5] and with CGNs [6] were 0 (250 nM) % and 4.3 (250 nM) %, respectively. Moreover, in the series with SHSY-5Y cells (drug 1 μM), the “% SHSY-5Y cell survival” value came out at 13.9%. Further, the “Fold Induction” value in the series with HIAP1 mRNA in LAN5 cells stood at 0.51.
